Source: US20110201603A1, “Novel Acylaminobenzamide Derivatives” (Bayer CropScience AG, priority 2008, published 2011)

How the values were obtained:
Assay type in all cases: in vivo
[1] = tested on: cucurbit leaf beetle (Aulacophora femoralis); experiment: Test against cucurbit leaf beetle (Aulacophora femoralis), leaf dip; settings: active compound concentration of 100 ppm; second-instar larvae on cucumber leaves; after 7 days
Procedure: (§1) Unless not mentioned otherwise, the test solutions were prepared as follows:
(§2) Containing as solvent: Dimethylformamide, 3 parts by weight; and as emulsifier: Polyoxyethylene alkyl phenyl ether, 1 part by weight
(§3) To prepare the test solution, 1 part by weight of an active compound is mixed with the above-mentioned amount of solvent containing the above-mentioned amount of emulsifier, and the mixture is diluted with water to the desired concentration.
Cucumber leaves were immersed in the test solution at the appropriate concentration, and the leaves were dried in air. The leaves were then placed in a plastic cup containing sterilized black soil, and five second-instar larvae of cucurbit leaf beetle were released therein. The plastic cup was placed in a temperature-controlled chamber at 25° C. After 7 days, the number of dead larvae was counted, and thus the insecticidal activity was calculated. An insecticidal activity of 100% means that all beetles were killed, whereas an insecticidal activity of 0% means that no beetle was killed.

[2] = tested on: tobacco cutworm (Spodoptera litura) larvae; experiment: Test against tobacco cutworm (Spodoptera litura) larvae, leaf dip; settings: active compound concentration of 100 ppm; third-instar larvae on sweet potato leaves; after 7 days
Procedure: as §1, §2, §3
The leaves of sweet potato were immersed in the test solution at the appropriate concentration, and the leaves were dried in air. The leaves were then placed in a petri dish having a diameter of 9 cm, and ten third-instar larvae of tobacco cutworm were released therein. The petri dish was placed in a temperature-controlled chamber at 25° C. After 2 days and 4 days sweet potato leaves were additionally added. After 7 days, the number of dead larvae was counted to calculate the insecticidal activity. An insecticidal activity of 100% means that all larvae were killed, whereas an insecticidal activity of 0% means that no larva was killed. In the current test, the results of two petri dishes for each partition were averaged.

Musca domestica = Musca domestica test; settings: application rate of 100 ppm; adults, sugar sponge; after 2 days
Procedure: (§4) Solvent: dimethyl sulfoxide
To produce a suitable preparation of active compound, 10 mg of active compound are dissolved in 0.5 ml solvent, and the concentrate is diluted with water to the desired concentration. Prior to the assay, a piece or kitchen sponge is soaked with a mixture of sugar and compound solution and placed into a container. 10 adults (Musca domestica) are placed into the container and closed with a perforated lid. After 2 days mortality in % is determined. 100% means that all the flies have been killed; 0% means that none of the flies have been killed.

Ctenocephalides felis = Ctenocephalides felis test (CTECFE), blood feeding; settings: application rate of 100 ppm in cattle blood; adult unfed fleas; after 2 days
Procedure: as §4
To produce a suitable preparation of active compound, 10 mg of active compound are dissolved in 0.5 ml solvent, and the concentrate is diluted with cattle blood to the desired concentration.
Approximately 10 to 15 adult unfed (Ctenocepahlides felis) are placed in flea chambers. The blood chamber, are sealed with paraffin on the bottom are filled with cattle blood supplied with compound solution and placed on top of the flea chamber, so that the fleas are able to suck the blood. The blood chamber is heated to 37° C. whereas the flea chamber is kept at room temperature. After 2 days mortality in % is determined. 100% means that all the fleas have been killed; 0% means that none of the fleas have been killed.

[3] = tested on: two-spotted spider mite (Tetranychus urticae); experiment: Test against two-spotted spider mite (Tetranychus urticae), spray; settings: concentration of 100 ppm; adult mites on kidney beans; after 7 days
Procedure: as §1, §2, §3
50 to 100 adult two-spotted spider mites were inoculated onto the leaves of kidney beans at the two-true leaf stage, which plant had been cultivated in a pot having a diameter of 6 cm. After one day, test solution at the appropriate concentration was sprayed thereon in a sufficient amount using a spray gun. After the spraying, the plant pot was placed inside a greenhouse, and after 7 days, the acaricidal activity was calculated. An acaricidal activity of 100% means that all mites were killed, whereas an acaricidal activity of 0% means that no mite was killed.

Lucilia cuprina larvae = experiment: Lucilia cuprina test; settings: application rate of 100 ppm; larvae on minced horse meat; after 2 days
Procedure: as §4
To produce a suitable preparation of active compound, 10 mg of active compound are dissolved in 0.5 ml solvent, and the concentrate is diluted with water to the desired concentration. Approximately 20-30 (Lucilia cuprina larvae) are transferred into a test tube containing 1 cm^3 of minced horse meat and 0.5 ml aqueous dilution of test compound. After 2 days mortality in % is determined. 100% means that all the larvae have been killed; 0% means that none of the larvae have been killed.

[4] = tested on: mustard beetle larvae (Phaedon cochleariae); experiment: Phaedon cochleariae test (PHAECO spray application); settings: application rate of 500 g/ha; Chinese cabbage leaf-disks; after 7 days
Procedure: Solvent: 78.0 parts by weight of acetone and 1.5 parts by weight of dimethylformamide
Emulsifier: 0.5 parts by weight of alkylaryl polyglycolether
To produce a suitable preparation of active compound, 1 part by weight of active compound is mixed with the stated amount of solvent and emulsifier, and the concentrate is diluted with emulsifier-containing water to the desired concentration. Chinese cabbage (Brassica pekinesis) leaf-disks are sprayed with a preparation of the active ingredient of the desired concentration. Once dry, the leaf disks are infested with mustard beetle larvae (Phaedon cochleariae). After 7 days mortality in % is determined. 100% means that all beetle larvae have been killed and 0% means that none of the beetle larvae have been killed.

Compound	insecticidal activity [1] [%]	insecticidal activity [2] [%]	activity (mortality in %) (Musca domestica) [%]	activity (mortality in %) (Ctenocephalides felis) [%]	acaricidal activity rate [3] [%]	activity (mortality in %) (Lucilia cuprina larvae) [%]	activity (mortality in %) [4] [%]
CCOC(c1cc(I)c(NC(=O)c2cccc(NC(=O)c3ccccc3)c2)c(I)c1)(C(F)(F)F)C(F)(F)F [1-25]	100	100	80	90			
CCOC(c1cc(I)c(NC(=O)c2cccc(NC(=O)c3cccnc3Cl)c2)c(I)c1)(C(F)(F)F)C(F)(F)F [1-40]	100	100	100	90	100		
Cc1cc(C(n2cc(Cl)cn2)(C(F)(F)F)C(F)(F)F)cc(C)c1NC(=O)c1cccc(NC(=O)c2cccnc2Cl)c1 [2-51]		100		100	100		
Cc1cc(C(n2cncn2)(C(F)(F)F)C(F)(F)F)cc(C)c1NC(=O)c1cccc(NC(=O)c2cccnc2Cl)c1 [2-148]				95			
Cc1cc(C(n2cc(C(F)(F)F)cn2)C(F)(F)C(F)(F)F)cc(C)c1NC(=O)c1cccc(NC(=O)c2cccnc2Cl)c1 (stereo not shown) [2-104]	100	100	80	100		90	
Cc1cc(C(n2cc(Br)cn2)(C(F)(F)F)C(F)(F)F)cc(C)c1NC(=O)c1cccc(NC(=O)c2cccnc2Cl)c1 [2-84]		100		95	100		
Cc1cc(C(n2cncn2)(C(F)(F)F)C(F)(F)F)cc(Br)c1NC(=O)c1cccc(NC(=O)c2ccccc2F)c1 [2-151]				90			
CCOC(c1cc(I)c(NC(=O)c2cccc(NC(=O)c3cccnc3F)c2)c(I)c1)(C(F)(F)F)C(F)(F)F [1-59]	100	100	100	95			
Cc1cc(C(n2cc(F)cn2)(C(F)(F)F)C(F)(F)F)cc(C)c1NC(=O)c1cccc(NC(=O)c2cccnc2Cl)c1 [2-6]	100	100			100		
Cc1cc(C(n2nc(C)c(Br)c2C)C(F)(F)F)cc(C)c1NC(=O)c1cccc([N+](=O)[O-])c1 (racemic) [11-143]							100
CCc1cc(C(Oc2ccc(Cl)cc2)(C(F)(F)F)C(F)(F)F)cc(C)c1NC(=O)c1cccc(NC(=O)c2cccnc2Cl)c1 [1-109]	100	100			100		
C#CCOC(c1cc(I)c(NC(=O)c2cccc(NC(=O)c3cccnc3Cl)c2)c(I)c1)(C(F)(F)F)C(F)(F)F [1-80]		100	100	80			
CCOC(c1cc(I)c(NC(=O)c2cccc(NC(=O)c3ccc(F)cc3)c2)c(I)c1)(C(F)(F)F)C(F)(F)F [1-28]	100	100			100		
Cc1cc(C(n2cc(C(F)(F)F)cn2)(C(F)(F)F)C(F)(F)F)cc(C)c1NC(=O)c1cccc(NC(=O)c2cccnc2F)c1 [2-108]	100	100		100			
CCc1cc(C(n2cccc2)(C(F)(F)F)C(F)(F)F)cc(C)c1NC(=O)c1cccc(NC(=O)c2cccnc2Cl)c1 [2-1]	100	100			100		
CCc1cc(C(C#N)(C(F)(F)F)C(F)(F)F)cc(C)c1NC(=O)c1cccc(NC(=O)c2cccnc2Cl)c1 [4-5]	100	100			100		
CCOC(c1cc(I)c(NC(=O)c2cccc(NC(=O)c3ccc(Cl)nc3)c2)c(I)c1)(C(F)(F)F)C(F)(F)F [1-60]	100	100	100	100	100		
CCc1cc(C(OCC2CC2)(C(F)(F)F)C(F)(F)F)cc(C)c1NC(=O)c1cccc(NC(=O)c2cccnc2Cl)c1 [1-66]	100	100			100		
Cc1cc(C(n2cc(C(F)(F)F)cn2)(C(F)(F)F)C(F)(F)F)cc(C)c1NC(=O)c1cccc(NC(=O)c2cccnc2Cl)c1 [2-109]	100	100		100			
CCOC(=O)Nc1cccc(C(=O)Nc2c(I)cc(C(OCC)(C(F)(F)F)C(F)(F)F)cc2I)c1 [1-24]		100	90				
CCc1cc(C(n2cc(Br)cn2)C(F)(F)F)cc(C)c1NC(=O)c1cccc(NC(=O)c2cccnc2Cl)c1 (stereo not shown) [2-77]		100		90			
CC(c1cc(Br)c(NC(=O)c2cccc(NC(=O)c3cccnc3Cl)c2)c(Br)c1)(n1cc(Br)cn1)C(F)(F)F (stereo not shown) [2-83]	100	100			100		
Cc1cc(C(n2cc(C(F)(F)F)cn2)C(F)(F)F)cc(C)c1NC(=O)c1cccc(NC(=O)c2cccnc2F)c1 (stereo not shown) [2-103]	100	100		95			
Cc1cc(C(n2cc(Cl)c(C(F)(F)C(F)(F)F)n2)(C(F)(F)F)C(F)(F)F)cc(C)c1NC(=O)c1cccc(NC(=O)c2cccnc2Cl)c1 [2-120]		100				90	
Cc1cc(C(N=[N+]=[N-])(C(F)(F)F)C(F)(F)F)cc(C)c1NC(=O)c1cccc(NC(=O)c2cccnc2Cl)c1 [2-145]	100	100			100		
Cc1cc(C(n2nc(C(F)(F)F)cc2C(F)(F)F)(C(F)(F)F)C(F)(F)F)cc(C)c1NC(=O)c1cccc(NC(=O)c2ccccc2F)c1 [2-124]		100				90	
CCOC(c1cc(I)c(NC(=O)c2cccc(NC(=O)c3cccc(F)c3)c2)c(I)c1)(C(F)(F)F)C(F)(F)F [1-27]	100	100	80	90	100		
CCOC(c1cc(I)c(NC(=O)c2cccc(NC(=O)c3ccccc3F)c2)c(I)c1)(C(F)(F)F)C(F)(F)F [1-26]	100	100	90	100			
